According to US20110166121A1 (LG LIFE SCIENCES LTD., priority 2008, published 2011):

Legend:
[1] = tested on: Human platelet aggregation caused by ADP; assay: Inhibition of ADP-induced platelet aggregation (Mimic-human PRP); format: cell-based; settings: 20 μM ADP, human platelet concentrate diluted with PPP, absorption at 595 nm
Method in brief: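 Ki came from non-linear sigmoidal fits of inhibition, measured as the 3-min rise in absorbance at 595 nm after 20 μM ADP, relative to 0/20 μM ADP controls. Platelets (3–4×10^8/mL in PPP-diluted human PRP) were exposed to 0.01–30 μM compound for 20 min at room temperature beforehand.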

[2] = molecular target: T1, Human P2Y12 receptor (Homo sapiens, UniProt Q9H244); assay: Human P2Y12 receptor cell membrane binding assay with [3H] 2-Mes-ADP; settings: 1 nM [3H] 2-Mes-ADP, membranes of HEK cells expressing P2Y12 receptor; read-out: Binding activity (IC50)
T1 construct: expressed in transfected cells; host or cells: HEK cells
T1 sequence (Q9H244 whole entry): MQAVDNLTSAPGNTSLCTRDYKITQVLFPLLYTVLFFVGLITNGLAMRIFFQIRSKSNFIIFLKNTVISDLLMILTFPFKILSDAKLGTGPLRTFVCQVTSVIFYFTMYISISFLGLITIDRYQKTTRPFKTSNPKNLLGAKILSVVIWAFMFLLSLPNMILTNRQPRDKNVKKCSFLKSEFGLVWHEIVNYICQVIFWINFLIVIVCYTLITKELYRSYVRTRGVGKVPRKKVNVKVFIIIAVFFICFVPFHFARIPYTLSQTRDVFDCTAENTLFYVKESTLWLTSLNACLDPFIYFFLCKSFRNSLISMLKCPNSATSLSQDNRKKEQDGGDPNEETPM
Method in brief: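 Competition binding used 1 nM [3H]2-MeS-ADP on P2Y12-expressing HEK cell membranes for 1 h at room temperature, followed by filtration and scintillation counting.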

CCCc1cc2c(N3CCn4c(nnc4C(F)(F)F)C3)nc(N3CCCC(O)C3)nc2s1 (stereo not shown) [Example 1-27, 1-[6-Propyl-4-(3-trifluoromethyl-5,6-dihydro-8H-[1,2,4]triazolo[4,3-a]pyrazin-7-yl)-thieno[2,3-d]pyrimidin-2-yl]-piperidin-3-ol]
Ki [1]: 72 nM
IC50 [2]: 56 nM

CCCc1cc2c(N3CCn4c(nnc4C(F)(F)F)C3)nc(N3CCCCC3CO)nc2s1 (stereo not shown) [Example 1-28, {1-[6-Propyl-4-(3-trifluoromethyl-5,6-dihydro-8H-[1,2,4]triazolo[4,3-a]pyrazin-7-yl)-thieno[2,3-d]pyrimidin-2-yl]-piperidin-2-yl}-methanol]
Ki [1]: 176 nM
IC50 [2]: 40 nM

CCCc1cc2c(N3CCn4c(nnc4C(F)(F)F)C3)nc(N3CCCC(CO)C3)nc2s1 (stereo not shown) [Example 1-29, {1-[6-Propyl-4-(3-trifluoromethyl-5,6-dihydro-8H-[1,2,4]triazolo[4,3-a]pyrazin-7-yl)-thieno[2,3-d]pyrimidin-2-yl]-piperidin-3-yl}-methanol]
Ki [1]: 60 nM
IC50 [2]: 50 nM

CCCc1cc2c(N3CCn4c(nnc4C(F)(F)F)C3)nc(N3CCCC3CO)nc2s1 (stereo not shown) [Example 1-30, {1-[6-Propyl-4-(3-trifluoromethyl-5,6-dihydro-8H-[1,2,4]triazolo[4,3-a]pyrazin-7-yl)-thieno[2,3-d]pyrimidin-2-yl]-pyrrolidin-2-yl}-methanol]
Ki [1]: 90 nM
IC50 [2]: 66 nM

CCCc1cc2c(N3CCn4c(nnc4C(F)(F)F)C3)nc(NC3CCCC3)nc2s1 [Example 1-31, Cyclopentyl-[6-propyl-4-(3-trifluoromethyl-5,6-dihydro-8H-[1,2,4]triazolo[4,3-a]pyrazin-7-yl)-thieno[2,3-d]pyrimidin-2-yl]-amine]
Ki [1]: 7600 nM
IC50 [2]: 110 nM

CCCc1cc2c(N3CCn4c(nnc4C(F)(F)F)C3)nc(NCc3ccccc3)nc2s1 [Example 1-32, Benzyl-[6-propyl-4-(3-trifluoromethyl-5,6-dihydro-8H-[1,2,4]triazolo[4,3-a]pyrazin-7-yl)-thieno[2,3-d]pyrimidin-2-yl]-amine]
Ki [1]: > 4000 nM
IC50 [2]: 95 nM

CCCc1cc2c(N3CCn4c(nnc4C(F)(F)F)C3)nc(N[C@@H]3C[C@H](OCCO)[C@@H](O)[C@H]3O)nc2s1 [Example 1-33, (1S,2S,3S,5R)-3-(2-Hydroxy-ethoxy)-5-[6-propyl-4-(3-trifluoromethyl-5,6-dihydro-8H-[1,2,4]triazolo[4,3-a]pyrazin-7-yl)-thieno[2,3-d]pyrimidin-2-ylamino]-cyclopentane-1,2-diol]
Ki [1]: 250 nM
IC50 [2]: 780 nM

CCCc1cc2c(N3CCn4c(nnc4C(F)(F)F)C3)nc(N(CCO)CCO)nc2s1 [Example 1-34, 2-{(2-Hydroxy-ethyl)-[6-propyl-4-(3-trifluoromethyl-5,6-dihydro-8H-[1,2,4]triazolo[4,3-a]pyrazin-7-yl)-thieno[2,3-d]pyrimidin-2-yl]-amino}-ethanol]
Ki [1]: 81 nM
IC50 [2]: 143 nM

CCCc1cc2c(N3CCn4c(nnc4C(F)(F)F)C3)nc(N3CCOC(=O)C3)nc2s1 [Example 1-35, 4-[6-Propyl-4-(3-trifluoromethyl-5,6-dihydro-8H-[1,2,4]triazolo[4,3-a]pyrazin-7-yl)-thieno[2,3-d]pyrimidin-2-yl]-morpholin-2-one]
Ki [1]: 54 nM
IC50 [2]: 135 nM

CCCc1cc2c(N3CCn4c(nnc4C(F)(F)F)C3)nc(Nc3ccccc3)nc2s1 [Example 1-36, Phenyl-[6-propyl-4-(3-trifluoromethyl-5,6-dihydro-8H-[1,2,4]triazolo[4,3-a]pyrazin-7-yl)-thieno[2,3-d]pyrimidin-2-yl]-amine]
Ki [1]: 1200 nM
IC50 [2]: 170 nM

CCCc1cc2c(N3CCn4c(nnc4C(F)(F)F)C3)nc(Nc3ncccn3)nc2s1 [Example 1-37, [6-Propyl-4-(3-trifluoromethyl-5,6-dihydro-8H-[1,2,4]triazolo[4,3-a]pyrazin-7-yl)-thieno[2,3-d]pyrimidin-2-yl]-pyrimidin-2-yl-amine]
Ki [1]: 850 nM
IC50 [2]: 550 nM

CCCc1cc2c(N3CCn4c(nnc4C(F)(F)F)C3)nc(N3CCN(c4ccc(O)cc4)CC3)nc2s1 [Example 1-38, 4-{4-[6-Propyl-4-(3-trifluoromethyl-5,6-dihydro-8H-[1,2,4]triazolo[4,3-a]pyrazin-7-yl)-thieno[2,3-d]pyrimidin-2-yl]-piperazin-1-yl}-phenol]
Ki [1]: 180 nM
IC50 [2]: 100 nM

CCCc1cc2c(N3CCn4c(nnc4C(F)(F)F)C3)nc(N3CCN(c4cccc(O)c4)CC3)nc2s1 [Example 1-39, 3-{4-[6-Propyl-4-(3-trifluoromethyl-5,6-dihydro-8H-[1,2,4]triazolo[4,3-a]pyrazin-7-yl)-thieno[2,3-d]pyrimidin-2-yl]-piperazin-1-yl}-phenol]
Ki [1]: 550 nM
IC50 [2]: 140 nM

CCCc1cc2c(N3CCn4c(nnc4C(F)(F)F)C3)nc(N3CCN(C4CCCC4)CC3)nc2s1 [Example 1-40, 7-[2-(4-Cyclopentyl-piperazin-1-yl)-6-propyl-thieno[2,3-d]pyrimidin-4-yl]-3-trifluoromethyl-5,6,7,8-tetrahydro-[1,2,4]triazolo[4,3-a]pyrazine]
Ki [1]: 175 nM
IC50 [2]: 200 nM

CCCc1cc2c(N3CCn4c(nnc4C(F)(F)F)C3)nc(N3CCN(CC4CCCC4)CC3)nc2s1 [Example 1-41, 7-[2-(4-Cyclopentylmethyl-piperazin-1-yl)-6-propyl-thieno[2,3-d]pyrimidin-4-yl]-3-trifluoromethyl-5,6,7,8-tetrahydro-[1,2,4]triazolo[4,3-a]pyrazine]
Ki [1]: 1600 nM
IC50 [2]: 536 nM

CCCc1cc2c(N3CCn4c(nnc4C(F)(F)F)C3)nc(N3CCN(CC4CCCCC4)CC3)nc2s1 [Example 1-42, 7-[2-(4-Cyclohexylmethyl-piperazin-1-yl)-6-propyl-thieno[2,3-d]pyrimidin-4-yl]-3-trifluoromethyl-5,6,7,8-tetrahydro-[1,2,4]triazolo[4,3-a]pyrazine]
Ki [1]: 7300 nM
IC50 [2]: 1170 nM

CCCc1cc2c(N3CCn4c(nnc4C(F)(F)F)C3)nc(NCCC(=O)OCC)nc2s1 [Example 1-43, 3-[6-Propyl-4-(3-trifluoromethyl-5,6-dihydro-8H-[1,2,4]triazolo[4,3-a]pyrazin-7-yl)-thieno[2,3-d]pyrimidin-2-ylamino]-propionic acid ethyl ester]
Ki [1]: 670 nM
IC50 [2]: 134 nM

CCCc1cc2c(N3CCn4c(nnc4C(F)(F)F)C3)nc(NCCC(=O)O)nc2s1 [Example 1-44, 3-[6-Propyl-4-(3-trifluoromethyl-5,6-dihydro-8H-[1,2,4]triazolo[4,3-a]pyrazin-7-yl)-thieno[2,3-d]pyrimidin-2-ylamino]-propionic acid]
Ki [1]: 260 nM
IC50 [2]: 59 nM

CCCc1cc2c(N3CCn4c(nnc4C(F)(F)F)C3)nc(N3CCCC(C(=O)OCC)C3)nc2s1 (stereo not shown) [Example 1-45, 1-[6-Propyl-4-(3-trifluoromethyl-5,6-dihydro-8H-[1,2,4]triazolo[4,3-a]pyrazin-7-yl)-thieno[2,3-d]pyrimidin-2-yl]-piperidine-3-carboxylic acid ethyl ester]
Ki [1]: 1000 nM
IC50 [2]: 340 nM

CCCc1cc2c(N3CCn4c(nnc4C(F)(F)F)C3)nc(N3CCCC(C(=O)O)C3)nc2s1 (stereo not shown) [Example 1-46, 1-[6-Propyl-4-(3-trifluoromethyl-5,6-dihydro-8H-[1,2,4]triazolo[4,3-a]pyrazin-7-yl)-thieno[2,3-d]pyrimidin-2-yl]-piperidine-3-carboxylic acid]
Ki [1]: 58 nM
IC50 [2]: 21 nM
